Test results from patent US20260176320A1, “MODULATORS OF G-PROTEIN COUPLED RECEPTORS” (priority 2018, published 2026).
Where two headings read alike, the source gives them in different places.

Columns and labels:
GLP-1R = GLP-1R (Homo sapiens, UniProt P43220); experiment: HitHunter cAMP assay (GLP-1R); type: cell-based; conditions: cAMP; for EC50: EC50 GLP-1R/nM; for Emax: read-out: (Emax) GLP-1R
Summary of the method: (§1)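 Luminescent readout of cAMP by enzyme-fragment immunocompetition gave agonist concentration-response data. Cells (10,000/well) sat in HBSS buffer containing IBMX 625 μM, HEPES 10 mM and BSA 0.2%, exposed to agonist for 30 min at room temperature.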

GIP-R = biological target: T1, GIP-R (Homo sapiens, UniProt P48546); experiment: HitHunter cAMP assay (GIP-R); type: cell-based; conditions: cAMP; for EC50: EC50 GIP-R/nM; for Emax: read-out: (Emax) GIP-R
T1 sequence (P48546 22-466): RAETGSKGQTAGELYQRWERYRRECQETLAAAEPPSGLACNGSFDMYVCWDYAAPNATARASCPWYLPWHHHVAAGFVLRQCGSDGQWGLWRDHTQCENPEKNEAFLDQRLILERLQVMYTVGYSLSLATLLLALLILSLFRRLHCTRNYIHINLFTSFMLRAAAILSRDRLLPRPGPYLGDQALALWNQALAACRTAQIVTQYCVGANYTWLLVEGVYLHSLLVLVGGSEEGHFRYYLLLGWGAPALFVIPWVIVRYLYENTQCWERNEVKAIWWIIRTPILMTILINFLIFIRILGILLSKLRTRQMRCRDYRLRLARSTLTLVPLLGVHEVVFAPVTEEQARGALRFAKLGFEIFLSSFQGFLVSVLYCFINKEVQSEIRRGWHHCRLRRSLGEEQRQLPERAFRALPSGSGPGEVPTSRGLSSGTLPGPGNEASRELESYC
Summary of the method: as §1

GLP-1R, sequence (P43220 24-463): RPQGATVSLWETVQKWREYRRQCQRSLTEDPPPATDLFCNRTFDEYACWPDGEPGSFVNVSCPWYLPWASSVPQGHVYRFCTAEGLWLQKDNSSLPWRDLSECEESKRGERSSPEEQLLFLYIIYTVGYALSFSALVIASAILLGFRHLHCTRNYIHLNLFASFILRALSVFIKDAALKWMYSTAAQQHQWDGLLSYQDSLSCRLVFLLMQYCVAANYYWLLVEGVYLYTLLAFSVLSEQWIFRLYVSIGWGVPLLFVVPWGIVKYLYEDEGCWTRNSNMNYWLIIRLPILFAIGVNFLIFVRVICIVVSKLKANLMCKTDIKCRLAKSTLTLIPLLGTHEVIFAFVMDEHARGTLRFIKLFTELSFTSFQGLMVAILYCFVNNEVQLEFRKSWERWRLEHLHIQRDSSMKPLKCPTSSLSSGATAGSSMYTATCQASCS

SMILES	EC50 (GLP-1R; Table 3) [nM]	EC50 (GLP-1R; Table 3A) [nM]	Emax (GLP-1R; Table 3) [%]	Emax (GLP-1R; Table 3A) [%]	EC50 (GIP-R; Table 3) [nM]	EC50 (GIP-R; Table 3A) [nM]	Emax (GIP-R; Table 3) [%]	Emax (GIP-R; Table 3A) [%]	Emax at 1 µM (GLP-1R; read-out: (Emax) GLP-1R at 1 μM, Table 3) [%]	Emax at 1 µM (GLP-1R; read-out: (Emax) GLP-1R at 1 μM, Table 3A) [%]
CCCCCCCCCCCCCCCC(=O)N[C@@H](CCC(=O)NCCCC[C@H](NC(=O)[C@H](CO)NC(=O)[C@@H]1CCCN1C(=O)[C@@H]1CCCN1C(=O)[C@@H]1CCCN1C(=O)[C@H](C)NC(=O)CNC(=O)[C@H](CO)NC(=O)[C@H](CO)NC(=O)[C@@H]1CCCN1C(=O)CNC(=O)CNC(=O)[C@H](C)NC(=O)[C@H](CC(C)C)NC(=O)[C@H](CC(C)C)NC(=O)[C@H](Cc1c[nH]c2ccccc12)NC(=O)[C@H](CC(N)=O)NC(=O)[C@@H](NC(=O)[C@H](Cc1ccccc1)NC(=O)[C@H](CCC(=O)O)NC(=O)C(C)(C)NC(=O)[C@H](C)NC(=O)[C@H](C)NC(=O)[C@H](CCC(N)=O)NC(=O)[C@H](CCCCN)NC(=O)[C@H](CC(=O)O)NC(=O)[C@H](CC(C)C)NC(=O)[C@H](Cc1ccc(O)cc1)NC(=O)[C@@H](NC(=O)[C@H](CO)NC(=O)[C@H](Cc1ccc(O)cc1)NC(=O)[C@H](CC(=O)O)NC(=O)[C@H](CO)NC(=O)[C@@H](NC(=O)[C@H](Cc1ccccc1)NC(=O)[C@@H](NC(=O)CNC(=O)[C@H](CCC(=O)O)NC(=O)CSCC(=O)NCCN1C(=O)C2=C(CCCC2)C1=O)[C@@H](C)O)[C@@H](C)O)[C@@H](C)CC)C(C)C)C(N)=O)C(=O)O [Compound 100]	10 to 100	10 to 100	95	95	1 to 10	1 to 10	100	100	–	–
CCCCCCCCCCCCCCCC(=O)N[C@@H](CCC(=O)NCCCC[C@H](NC(=O)[C@H](CO)NC(=O)[C@@H]1CCCN1C(=O)[C@@H]1CCCN1C(=O)[C@@H]1CCCN1C(=O)[C@H](C)NC(=O)CNC(=O)[C@H](CO)NC(=O)[C@H](CO)NC(=O)[C@@H]1CCCN1C(=O)CNC(=O)CNC(=O)[C@H](C)NC(=O)[C@H](CC(C)C)NC(=O)[C@H](CC(C)C)NC(=O)[C@H](Cc1c[nH]c2ccccc12)NC(=O)[C@H](CC(N)=O)NC(=O)[C@@H](NC(=O)[C@H](Cc1ccccc1)NC(=O)[C@H](CCC(=O)O)NC(=O)C(C)(C)NC(=O)[C@H](C)NC(=O)[C@H](C)NC(=O)[C@H](CCC(N)=O)NC(=O)[C@H](CCCCN)NC(=O)[C@H](CC(=O)O)NC(=O)[C@H](CC(C)C)NC(=O)[C@H](Cc1ccc(O)cc1)NC(=O)[C@@H](NC(=O)[C@H](CO)NC(=O)[C@H](Cc1ccc(O)cc1)NC(=O)[C@H](CC(=O)O)NC(=O)[C@H](CO)NC(=O)[C@@H](NC(=O)[C@H](Cc1ccccc1)NC(=O)[C@@H](NC(=O)CNC(=O)[C@H](CCC(=O)O)NC(=O)CSCC(=O)NCCN1C(=O)CC2(CCCC2)C1=O)[C@@H](C)O)[C@@H](C)O)[C@@H](C)CC)C(C)C)C(N)=O)C(=O)O [Compound 102]	1 to 10	1 to 10	104	104	10 to 100	10 to 100	34	34	–	–
CCCCCCCCCCCCCCCC(=O)N[C@@H](CCC(=O)NCCCC[C@H](NC(=O)[C@H](CO)NC(=O)[C@@H]1CCCN1C(=O)[C@@H]1CCCN1C(=O)[C@@H]1CCCN1C(=O)[C@H](C)NC(=O)CNC(=O)[C@H](CO)NC(=O)[C@H](CO)NC(=O)[C@@H]1CCCN1C(=O)CNC(=O)CNC(=O)[C@H](C)NC(=O)[C@H](CC(C)C)NC(=O)[C@H](CC(C)C)NC(=O)[C@H](Cc1c[nH]c2ccccc12)NC(=O)[C@H](CC(N)=O)NC(=O)[C@@H](NC(=O)[C@H](Cc1ccccc1)NC(=O)[C@H](CCC(=O)O)NC(=O)C(C)(C)NC(=O)[C@H](C)NC(=O)[C@H](C)NC(=O)[C@H](CCC(N)=O)NC(=O)[C@H](CCCCN)NC(=O)[C@H](CC(=O)O)NC(=O)[C@H](CC(C)C)NC(=O)[C@H](Cc1ccc(O)cc1)NC(=O)[C@@H](NC(=O)[C@H](CO)NC(=O)[C@H](Cc1ccc(O)cc1)NC(=O)[C@H](CC(=O)O)NC(=O)[C@H](CO)NC(=O)[C@@H](NC(=O)[C@H](Cc1ccccc1)NC(=O)[C@@H](NC(=O)CNC(=O)[C@H](CCC(=O)O)NC(=O)CSCC(=O)NCCN1C(=O)[C@H]2CCC[C@H]2C1=O)[C@@H](C)O)[C@@H](C)O)[C@@H](C)CC)C(C)C)C(N)=O)C(=O)O [Compound 103]	10 to 100	10 to 100	95	95	1 to 10	1 to 10	68	68	–	–
CC[C@H](C)[C@H](NC(=O)[C@H](CO)NC(=O)[C@H](Cc1ccc(O)cc1)NC(=O)[C@H](CC(=O)O)NC(=O)[C@H](CO)NC(=O)[C@@H](NC(=O)[C@H](Cc1ccccc1)NC(=O)[C@@H](NC(=O)CNC(=O)[C@H](CCC(=O)O)NC(=O)CSCC(=O)NCCN1C(=O)CCc2cccnc21)[C@@H](C)O)[C@@H](C)O)C(=O)N[C@@H](Cc1ccc(O)cc1)C(=O)N[C@@H](CC(C)C)C(=O)N[C@@H](CC(=O)O)C(=O)N[C@@H](CCCCN)C(=O)N[C@@H](CCC(N)=O)C(=O)N[C@@H](C)C(=O)N[C@@H](C)C(=O)NC(C)(C)C(=O)N[C@@H](CCC(=O)O)C(=O)N[C@@H](Cc1ccccc1)C(=O)N[C@H](C(=O)N[C@@H](CC(N)=O)C(=O)N[C@@H](Cc1c[nH]c2ccccc12)C(=O)N[C@@H](CC(C)C)C(=O)N[C@@H](CC(C)C)C(=O)N[C@@H](C)C(=O)NCC(=O)NCC(=O)N1CCC[C@H]1C(=O)N[C@@H](CO)C(=O)N[C@@H](CO)C(=O)NCC(=O)N[C@@H](C)C(=O)N1CCC[C@H]1C(=O)N1CCC[C@H]1C(=O)N1CCC[C@H]1C(=O)N[C@@H](CO)C(=O)N[C@@H](CCCCN)C(N)=O)C(C)C [Compound 106]	10 to 100	10 to 100	95	95	10 to 100	10 to 100	37	37	–	–
CC[C@H](C)[C@H](NC(=O)[C@H](CO)NC(=O)[C@H](Cc1ccc(O)cc1)NC(=O)[C@H](CC(=O)O)NC(=O)[C@H](CO)NC(=O)[C@@H](NC(=O)[C@H](Cc1ccccc1)NC(=O)[C@@H](NC(=O)CNC(=O)[C@H](CCC(=O)O)NC(=O)CSCC(=O)NCCN1C(=O)c2ccc([N+](=O)[O-])cc2C1=O)[C@@H](C)O)[C@@H](C)O)C(=O)N[C@@H](Cc1ccc(O)cc1)C(=O)N[C@@H](CC(C)C)C(=O)N[C@@H](CC(=O)O)C(=O)N[C@@H](CCCCN)C(=O)N[C@@H](CCC(N)=O)C(=O)N[C@@H](C)C(=O)N[C@@H](C)C(=O)NC(C)(C)C(=O)N[C@@H](CCC(=O)O)C(=O)N[C@@H](Cc1ccccc1)C(=O)N[C@H](C(=O)N[C@@H](CC(N)=O)C(=O)N[C@@H](Cc1c[nH]c2ccccc12)C(=O)N[C@@H](CC(C)C)C(=O)N[C@@H](CC(C)C)C(=O)N[C@@H](C)C(=O)NCC(=O)NCC(=O)N1CCC[C@H]1C(=O)N[C@@H](CO)C(=O)N[C@@H](CO)C(=O)NCC(=O)N[C@@H](C)C(=O)N1CCC[C@H]1C(=O)N1CCC[C@H]1C(=O)N1CCC[C@H]1C(=O)N[C@@H](CO)C(=O)N[C@@H](CCCCN)C(N)=O)C(C)C [Compound 107]	10 to 100	10 to 100	57	57	0.1 to 1	0.1 to 1	124	124	–	–
CC[C@H](C)[C@H](NC(=O)[C@H](CO)NC(=O)[C@H](Cc1ccc(O)cc1)NC(=O)[C@H](CC(=O)O)NC(=O)[C@H](CO)NC(=O)[C@@H](NC(=O)[C@H](Cc1ccccc1)NC(=O)[C@@H](NC(=O)CNC(=O)[C@H](CCC(=O)O)NC(=O)CSCC(=O)NCCN1C(=O)c2cccc([N+](=O)[O-])c2C1=O)[C@@H](C)O)[C@@H](C)O)C(=O)N[C@@H](Cc1ccc(O)cc1)C(=O)N[C@@H](CC(C)C)C(=O)N[C@@H](CC(=O)O)C(=O)N[C@@H](CCCCN)C(=O)N[C@@H](CCC(N)=O)C(=O)N[C@@H](C)C(=O)N[C@@H](C)C(=O)NC(C)(C)C(=O)N[C@@H](CCC(=O)O)C(=O)N[C@@H](Cc1ccccc1)C(=O)N[C@H](C(=O)N[C@@H](CC(N)=O)C(=O)N[C@@H](Cc1c[nH]c2ccccc12)C(=O)N[C@@H](CC(C)C)C(=O)N[C@@H](CC(C)C)C(=O)N[C@@H](C)C(=O)NCC(=O)NCC(=O)N1CCC[C@H]1C(=O)N[C@@H](CO)C(=O)N[C@@H](CO)C(=O)NCC(=O)N[C@@H](C)C(=O)N1CCC[C@H]1C(=O)N1CCC[C@H]1C(=O)N1CCC[C@H]1C(=O)N[C@@H](CO)C(=O)N[C@@H](CCCCN)C(N)=O)C(C)C [Compound 108]	> 1000	> 1000	–	–	10 to 100	10 to 100	69	69	18	18
